Publication PMC6563031, “Polyketides from the Mangrove-Derived Endophytic Fungus Cladosporium cladosporioides” (Marine Drugs, 2019)
Converted amounts (≈) assume the structure as drawn. Where two headings read alike, the source gives them in different places.

Assays:
[1] = test system: Staphylococcus aureus EMBLC-2; test: Antimicrobial 96-well microtiter plate assay, S. aureus; format: cell-based
[2] = test system: Escherichia coli EMBLC-1; test: Antimicrobial 96-well microtiter plate assay, E. coli; format: cell-based
[3] = test system: E. tarda QDIO-2; test: Antimicrobial 96-well microtiter plate assay, E. tarda; format: cell-based, Edwardsiella tarda
[4] = test system: Edwardsiella ictarda QDIO-9; test: Antimicrobial 96-well microtiter plate assay, E. ictarda; format: cell-based; details: chloramphenicol as positive control
[5] = test system: Pseudomonas aeruginosa QDIO-4; test: Antimicrobial 96-well microtiter plate assay, P. aeruginosa; format: cell-based; details: amphotericin B as positive control (as footnoted)
[6] = test system: Glomerella cingulate QDAU-12; test: Antimicrobial 96-well microtiter plate assay, G. cingulate; format: cell-based; details: amphotericin B as positive control
[7] = test system: Bipolaris sorokiniana QDAU-5; test: Antimicrobial 96-well microtiter plate assay, B. sorokiniana; format: cell-based
[8] = test system: F. oxysporum f. sp. cucumerinum QDAU-8; test: Antimicrobial 96-well microtiter plate assay, F. oxysporum f. sp. cucumerinum; format: cell-based, Fusarium oxysporum f. sp. cucumerinum; details: amphotericin B as positive control
[9] = Staphylococcus aureus, EMBLC2, chloramphenicol as positive control, read-out: MIC
[10] = Escherichia coli, EMBLC1, chloramphenicol as positive control, read-out: MIC
[11] = Edwardsiella tarda, QDIO2, chloramphenicol as positive control, read-out: MIC
[12] = Edwardsiella, QDIO9, E. ictarda, read-out: MIC
[13] = Pseudomonas aeruginosa, QDIO4, P. aeruginosa, read-out: MIC
[14] = Bipolaris sorokiniana, QDAU5, amphotericin B as positive control, read-out: MIC
[15] = Fusarium oxysporum, read-out: MIC
[16] = chloramphenicol as positive control

| SMILES | MIC [1, 9] [µg/mL] | MIC [2, 10] [µg/mL] | MIC [3, 11] [µg/mL] | MIC [4, 12] [µg/mL] | MIC [5, 13] [µg/mL] | MIC [6] | MIC [7, 14] [µg/mL] | MIC [8, 15] [µg/mL] | MIC ([6]; read-out: MIC) [µg/mL] | MIC ([5]; P. aeruginosa) | MIC [1, 16] | MIC [2, 16] | MIC [3, 16] | MIC ([7]; amphotericin B as positive control) | MIC [8] | MIC ([4]; E. ictarda) |
| --- | --- | --- | --- | --- | --- | --- | --- | --- | --- | --- | --- | --- | --- | --- | --- | --- |
| O=C(N[C@H](CO)[C@H](O)c1ccc([N+](=O)[O-])cc1)C(Cl)Cl [Chloramphenicol, reference compound] | 1 (≈ 3.09 µM) | 2 (≈ 6.19 µM) | 0.5 (≈ 1.55 µM) | 0.5 (≈ 1.55 µM) | – | – | – | – | – | – | – | – | – | – | – | – |
| CC1CC=CCCC(O)CCCC(=O)O1 (stereo not drawn) [Compound 1, 5R-hydroxyrecifeiolide] | > 64 | > 64 | > 64 | 32 (≈ 151 µM) | 32 (≈ 151 µM) | – ((–) = MIC > 64 μg/mL) | > 64 | > 64 | – | – | – | – | – | – | – | – |
| C[C@@H]1[C@H](O)[C@@H](C)/C=C/C=C/C=C/C=C/C=C/C=C/C=C/[C@H](O[C@@H]2O[C@H](C)[C@@H](O)[C@H](N)[C@@H]2O)C[C@@H]2O[C@](O)(C[C@@H](O)C[C@@H](O)[C@H](O)CC[C@@H](O)C[C@@H](O)CC(=O)O[C@H]1C)C[C@H](O)[C@H]2C(=O)O [Amphotericin B, reference compound] | – | – | – | – | 2 (≈ 2.16 µM) | – | 0.5 (≈ 0.541 µM) | 0.5 (≈ 0.541 µM) | 0.5 (≈ 0.541 µM) | – | – | – | – | – | – | – |
| CC1CC=CCCC(O)CCCC(=O)O1 (stereo not drawn) [Compound 2, 5S-hydroxyrecifeiolide] | – | – | – | – | – | 16 µg/mL (≈ 75.4 µM) | – | – | – | – ((–) = MIC > 64 μg/mL) | – ((–) = MIC > 64 μg/mL) | – ((–) = MIC > 64 μg/mL) | – ((–) = MIC > 64 μg/mL) | – ((–) = MIC > 64 μg/mL) | – ((–) = MIC > 64 μg/mL) | – ((–) = MIC > 64 μg/mL) |
| C[C@H]1CCCCC[C@H](O)C(=O)[C@H](O)CC(=O)O1 [Compound 7, pandangolide 1] | 32 (≈ 131 µM) | > 64 | > 64 | 4 (≈ 16.4 µM) | 32 (≈ 131 µM) | – | > 64 | > 64 | 1 (≈ 4.09 µM) | – | – | – | – | – | – | – |
| CC(O)CCCCCC(O)C1C=CC(=O)O1 (centres unmarked) [Compound 6, iso-cladospolide B] | > 64 | 32 (≈ 140 µM) | 32 (≈ 140 µM) | 16 (≈ 70.1 µM) | > 64 | – | > 64 | > 64 | 64 (≈ 280 µM) | – | – | – | – | – | – | – |
| CC(O)CCCCCCC1OC(=O)CC1O (stereo not drawn) [Compound 3, ent-cladospolide F] | 8 (≈ 34.7 µM) | > 64 | > 64 | 16 (≈ 69.5 µM) | 64 (≈ 278 µM) | – | > 64 | > 64 | > 64 | – | – | – | – | – | – | – |
| CC(=O)OC(C)CCCCCCC1OC(=O)CC1O (centres unmarked) [Compound 4, cladospolide G] | > 64 | 32 (≈ 117 µM) | > 64 | > 64 | > 64 | – | 32 (≈ 117 µM) | 1 (≈ 3.67 µM) | 1 (≈ 3.67 µM) | – | – | – | – | – | – | – |
